Measurements reported in ChEMBL document CHEMBL1130048, “Biological and conformational examination of stereochemical modifications using the template melanotropin peptide, Ac-Nle-c[Asp-His-Phe-Arg-Trp-Ala-Lys]-NH2, on human melanocortin receptors” (J Med Chem, 1997).

Experiments:
Melanocortin receptor 3 [1] = target: T1, Melanocortin receptor 3 (Homo sapiens, UniProt P41968); experiment: Inhibitory concentration against human Melanocortin 3 receptor (hMC3R)
Melanocortin receptor 4 [2] = target: T2, Melanocortin receptor 4 (Homo sapiens, UniProt P32245); experiment: Effective concentration for intracellular cAMP accumulation in L-cells expressing Melanocortin 4 receptor; assay type: functional, cell-based
Melanocortin receptor 4 [3] = target: T2, Melanocortin receptor 4; experiment: Inhibitory concentration against human Melanocortin 4 receptor (hMC4R)
[4] = target: T3, Melanocyte-stimulating hormone receptor (Homo sapiens, UniProt Q01726); experiment: Effective concentration for intracellular cAMP accumulation in L-cells expressing Melanocortin 1 receptor; assay type: functional, cell-based
Melanocortin receptor 3 [5] = target: T1, Melanocortin receptor 3; experiment: Effective concentration that was able to generate 50% maximal intracellular cAMP in L-cells transfected with Melanocortin 3 receptor; assay type: functional, cell-based
Melanocortin receptor 5 = Melanocortin receptor 5 (Homo sapiens, UniProt P33032); experiment: Inhibitory concentration against human Melanocortin 5 receptor (hMC5R)
[6] = target: T3, Melanocyte-stimulating hormone receptor; experiment: Inhibitory concentration against human Melanocortin 1 receptor (hMC1R)

T3 sequence (Q01726 whole entry): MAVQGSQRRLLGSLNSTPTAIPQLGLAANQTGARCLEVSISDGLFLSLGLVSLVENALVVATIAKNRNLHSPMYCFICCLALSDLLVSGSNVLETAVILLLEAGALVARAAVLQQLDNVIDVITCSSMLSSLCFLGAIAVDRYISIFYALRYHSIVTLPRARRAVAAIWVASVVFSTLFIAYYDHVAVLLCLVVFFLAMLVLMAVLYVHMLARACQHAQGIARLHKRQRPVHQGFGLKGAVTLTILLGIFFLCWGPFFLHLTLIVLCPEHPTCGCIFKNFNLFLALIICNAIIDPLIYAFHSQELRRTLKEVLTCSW
T1 sequence (P41968 whole entry): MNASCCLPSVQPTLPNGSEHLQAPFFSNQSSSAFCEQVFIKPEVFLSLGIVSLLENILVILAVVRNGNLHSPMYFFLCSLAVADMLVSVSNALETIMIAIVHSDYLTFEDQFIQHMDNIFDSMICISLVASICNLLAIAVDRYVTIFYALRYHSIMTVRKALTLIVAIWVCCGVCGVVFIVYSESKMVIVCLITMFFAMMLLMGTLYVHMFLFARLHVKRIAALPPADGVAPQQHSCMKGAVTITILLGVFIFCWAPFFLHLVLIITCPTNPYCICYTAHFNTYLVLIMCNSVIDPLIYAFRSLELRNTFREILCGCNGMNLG
T2 sequence (P32245 whole entry): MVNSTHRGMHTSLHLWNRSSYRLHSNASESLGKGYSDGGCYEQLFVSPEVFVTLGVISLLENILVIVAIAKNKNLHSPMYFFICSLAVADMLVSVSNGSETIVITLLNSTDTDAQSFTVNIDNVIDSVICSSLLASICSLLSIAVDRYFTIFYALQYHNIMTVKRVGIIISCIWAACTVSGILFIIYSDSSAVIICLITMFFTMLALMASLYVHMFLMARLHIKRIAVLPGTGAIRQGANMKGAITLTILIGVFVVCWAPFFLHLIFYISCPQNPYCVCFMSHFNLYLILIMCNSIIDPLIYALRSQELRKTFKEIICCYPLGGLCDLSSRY
Sequence of Melanocortin receptor 5 (P33032 whole entry): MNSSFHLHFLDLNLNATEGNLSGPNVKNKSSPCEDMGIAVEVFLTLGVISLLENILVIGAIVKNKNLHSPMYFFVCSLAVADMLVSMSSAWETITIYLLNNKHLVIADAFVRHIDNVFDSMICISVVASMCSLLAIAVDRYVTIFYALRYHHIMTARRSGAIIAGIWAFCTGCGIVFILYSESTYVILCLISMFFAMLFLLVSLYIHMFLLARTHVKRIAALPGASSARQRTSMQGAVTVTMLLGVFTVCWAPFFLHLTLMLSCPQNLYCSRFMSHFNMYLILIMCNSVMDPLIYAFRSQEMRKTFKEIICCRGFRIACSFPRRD

Compound | IC50 (Melanocortin receptor 3 [1]) [nM] | EC50 (Melanocortin receptor 4 [2]) [nM] | IC50 (Melanocortin receptor 4 [3]) [nM] | EC50 [4] [nM] | EC50 (Melanocortin receptor 3 [5]) [nM] | IC50 (Melanocortin receptor 5) [nM] | IC50 [6] [nM]
CC(=O)N[C@@H]1CC(=O)NCCCC[C@H](C(N)=O)NC(=O)[C@@H](C)NC(=O)[C@H](Cc2c[nH]c3ccccc23)NC(=O)[C@@H](CCCNC(=N)N)NC(=O)[C@H](Cc2ccccc2)NC(=O)[C@@H](Cc2cnc[nH]2)NC1=O | 102 | 2.92 | 2.03 | 13.4 | 88.5 | > 1000 | 1.94
CCCC[C@H](NC(C)=O)C(=O)N[C@@H]1CC(=O)NCCCC[C@@H](C(N)=O)NC(=O)[C@H](C)NC(=O)[C@@H](Cc2c[nH]c3ccccc23)NC(=O)[C@H](CCCNC(=N)N)NC(=O)[C@H](Cc2ccccc2)NC(=O)[C@H](Cc2cnc[nH]2)NC1=O | – | – | – | 34.2 | – | – | 264
CCCC[C@H](NC(C)=O)C(=O)N[C@H]1CC(=O)NCCCC[C@@H](C(N)=O)NC(=O)[C@H](C)NC(=O)C(Cc2c[nH]c3ccccc23)NC(=O)[C@H](CCCN=C(N)N)NC(=O)[C@@H](Cc2ccccc2)NC(=O)[C@H](Cc2c[nH]cn2)NC1=O (single isomer, unassigned) | – | – | – | 0.098 | – | – | 0.35
CCCC[C@H](NC(C)=O)C(=O)N[C@H]1CC(=O)NCCCC[C@@H](C(N)=O)NC(=O)[C@H](C)NC(=O)C(Cc2c[nH]c3ccccc23)NC(=O)[C@H](CCCN=C(N)N)NC(=O)C(Cc2ccccc2)NC(=O)[C@H](Cc2c[nH]cn2)NC1=O (single isomer, unassigned) | – | – | – | 2.61 | – | – | 22.4
CCCC[C@H](NC(C)=O)C(=O)N[C@H]1CC(=O)NCCCC[C@@H](C(N)=O)NC(=O)[C@H](C)NC(=O)C(Cc2c[nH]c3ccccc23)NC(=O)[C@H](CCCN=C(N)N)NC(=O)[C@H](Cc2ccccc2)NC(=O)[C@H](Cc2c[nH]cn2)NC1=O (single isomer, unassigned) | – | – | – | 0.3 | – | – | 0.91
